Some test systems named below: A549 NSCLC; NCI-H460 lung; SK-OV-3 ovarian; MDA-MB-435; UO-31 renal; SN12C renal; T-47D breast; SNB-75 CNS; OVCAR-3 ovarian; HCT-15 colon.
Assay in all cases: inhibition of tumour cell growth, NCI panel, 48 h

The structures appear in SMILES notation. Where “and” joins values, the source holds several entries; their conditions need not be identical. Identical values can stand only once.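 These data come from cells grown in 96-well plates and exposed to compound for 48 hours at five concentrations. The concentration for 50% growth inhibition is given as GI50. TGI marks complete inhibition of growth.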 A value given as a limit tells only on which side of the number the result lay.

In PubChem BioAssay (NCI) one finds GI50 and TGI data, which are given here for 12 compounds.

As to `Oc1c(Cl)cc(Cl)c(Cl)c1Cc1c(O)c(Cl)cc(Cl)c1Cl`, the GI50 with A549 NSCLC is 1.99 µM; with NCI-H460 lung, 0.534 µM; in the assay on SK-OV-3 ovarian it was 2.53 µM; in the assay with MDA-MB-435 it was 1.93 µM; with UO-31 renal it was 2.18 µM; in the assay with SN12C renal it was 0.431 µM. Besides, the GI50 was 2.41 µM in the assay with T-47D breast, 1.65 µM in the assay with SNB-75 CNS, 1.34 µM in the assay with OVCAR-3 ovarian and 0.528 µM in the assay with HCT-15 colon. The TGI with A549 NSCLC came out at 12.9 µM; in the assay on NCI-H460 lung, 12.5 µM; with SK-OV-3 ovarian it was 11.6 µM; with MDA-MB-435 it was 12.8 µM; in the assay with UO-31 renal it was 11.8 µM; with SN12C renal it was 22.2 µM. In addition, the TGI with T-47D breast worked out at 15 µM; in the assay on SNB-75 CNS it was 10.6 µM; in the assay with OVCAR-3 ovarian, 8.47 µM; in the assay on HCT-15 colon, 13.7 µM.
For the compound `CC[C@]1(O)CC2CN(CCc3c([nH]c4ccccc34)C(C(=O)OC)(c3cc4c(cc3OC)N(C=O)[C@H]3[C@@](O)(C(=O)OC)[C@H](OC(C)=O)[C@]5(CC)[C@@H]6C[C@@H]6CN6CC[C@]43[C@@H]65)C2)C1` (stereo not given in full), the GI50 in the assay with A549 NSCLC was under 0.00325 µM; in the assay on NCI-H460 lung it was under 0.00325 µM; with SK-OV-3 ovarian, under 0.00325 µM; in the assay on MDA-MB-435, under 0.00325 µM; in the assay with UO-31 renal, 0.173 µM; in the assay on SN12C renal it was under 0.00325 µM. The GI50 in the assay on T-47D breast was 0.228 µM; in the assay on SNB-75 CNS, under 0.00325 µM; in the assay with OVCAR-3 ovarian, under 0.00325 µM; in the assay on HCT-15 colon, 0.0365 µM. Besides, the TGI in the assay on A549 NSCLC was over 30.7 µM; in the assay on NCI-H460 lung it was over 11.2 µM; in the assay on SK-OV-3 ovarian it was under 0.00325 µM; in the assay on MDA-MB-435, under 0.00325 µM; in the assay with UO-31 renal, over 19.4 µM; in the assay on SN12C renal it was over 32.5 µM. Besides, the TGI in the assay with SNB-75 CNS was 13.4 µM; in the assay on OVCAR-3 ovarian, under 0.00325 µM; with HCT-15 colon it was over 32.5 µM.
Consider `COC(=O)NC1=Nc2ccccc2C(=O)NN1`, for which the TGI with A549 NSCLC, in the assay on NCI-H460 lung, in the assay on SK-OV-3 ovarian, in the assay on MDA-MB-435, with UO-31 renal and in the assay on SN12C renal was over 100 µM throughout. Moreover, the TGI in the assay on T-47D breast, in the assay on SNB-75 CNS, in the assay with OVCAR-3 ovarian and in the assay on HCT-15 colon was over 100 µM in each case.
For the compound `COc1ccc(-c2cc(-c3ccc(Cl)cc3)nc(SCCCC(=O)NO)n2)cc1OC`, the GI50 in the assay on A549 NSCLC was 1.58 µM; in the assay on NCI-H460 lung, 0.466 µM; with SK-OV-3 ovarian, 1.54 µM; in the assay with MDA-MB-435, 1.42 µM; with UO-31 renal, 0.277 µM; with SN12C renal, 0.819 µM. Moreover, the GI50 with T-47D breast is 1.88 µM; in the assay with SNB-75 CNS, 1.49 µM; in the assay on OVCAR-3 ovarian it was 0.423 µM; in the assay with HCT-15 colon, 0.337 µM. Further, the TGI with A549 NSCLC was 8.59 µM; in the assay with NCI-H460 lung, 3.4 µM; in the assay with SK-OV-3 ovarian, 4.58 µM; in the assay on MDA-MB-435, 3.12 µM; with UO-31 renal it was 1.09 µM; in the assay on SN12C renal it was 5.64 µM. Also, the TGI was determined as 18.1 µM with T-47D breast, 6.31 µM with SNB-75 CNS, 2.52 µM in the assay with OVCAR-3 ovarian and 1.56 µM with HCT-15 colon.
As to `Cc1c(Br)c(Br)c2c3c1nc(N1CCNCC1)n3CCC2`, the GI50 in the assay with A549 NSCLC is 1.87 µM; in the assay with NCI-H460 lung, 1.7 µM; in the assay with SK-OV-3 ovarian, 3.59 µM; in the assay with MDA-MB-435, 1.73 µM; in the assay on UO-31 renal, 1.54 µM; in the assay with SN12C renal, 1.42 µM. For the same compound, the GI50 in the assay with T-47D breast is 2.35 µM; in the assay with SNB-75 CNS, 1.96 µM; in the assay with OVCAR-3 ovarian, 1.56 µM; with HCT-15 colon, 1.69 µM. Further, the TGI is 4.01 µM in the assay with A549 NSCLC; 3.22 µM in the assay on NCI-H460 lung; 13.1 µM with SK-OV-3 ovarian; 3.22 µM in the assay on MDA-MB-435; 2.91 µM in the assay on UO-31 renal; 2.85 µM with SN12C renal. Further, the TGI with T-47D breast amounted to 6.36 µM; in the assay with SNB-75 CNS, 4.1 µM; in the assay with OVCAR-3 ovarian it was 3.01 µM; in the assay with HCT-15 colon it was 3.33 µM.
Take `Cc1cc2c(C(C)C)c(O)c(O)c(/C=N/O)c2c(O)c1-c1c(C)cc2c(C(C)C)c(O)c(O)c(/C=N/O)c2c1O`: the GI50 in the assay with A549 NSCLC is 2.69 µM; with NCI-H460 lung, 2.19 µM; in the assay on SK-OV-3 ovarian, 3.6 µM; in the assay on MDA-MB-435, 2.78 µM; in the assay on UO-31 renal, 2.24 µM; with SN12C renal it was 4.34 µM. The GI50 in the assay with T-47D breast is 2 µM; in the assay on SNB-75 CNS, 3.57 µM; in the assay with OVCAR-3 ovarian, 1.69 µM; with HCT-15 colon, 2.35 µM. The TGI stood at 12.1 µM with A549 NSCLC; 6.72 µM in the assay on NCI-H460 lung; 11.9 µM with SK-OV-3 ovarian; 12.1 µM in the assay with MDA-MB-435; 12.6 µM in the assay on UO-31 renal; 18.5 µM in the assay on SN12C renal. In addition, the TGI turned out to be 8.42 µM in the assay on T-47D breast, 17.4 µM with SNB-75 CNS, 10.1 µM in the assay with OVCAR-3 ovarian and 13.4 µM with HCT-15 colon.
`COc1cc2c3c(n(CCCNCCCCN)c(=O)c2cc1OC)-c1cc2c(cc1C3=O)OCO2`: the GI50 was 5.48 µM in the assay on A549 NSCLC; under 0.041 µM with NCI-H460 lung; 9.15 µM in the assay with SK-OV-3 ovarian; 6.11 µM in the assay on MDA-MB-435; 7.39 µM with UO-31 renal; 0.373 µM in the assay with SN12C renal. Further, the GI50 in the assay with T-47D breast was 3.11 µM; in the assay with SNB-75 CNS it was 10.7 µM; in the assay with OVCAR-3 ovarian it was 2.77 µM; in the assay on HCT-15 colon, 17.5 µM. For the same compound, the TGI with A549 NSCLC was 25 µM; with NCI-H460 lung it was 7.38 µM; in the assay on SK-OV-3 ovarian, over 46.6 µM; with MDA-MB-435, 20.4 µM; in the assay on UO-31 renal, over 58.5 µM; with SN12C renal, 5.89 µM. In addition, the TGI in the assay with T-47D breast is 27.1 µM; with SNB-75 CNS it was 32.2 µM; in the assay with OVCAR-3 ovarian it was 14.1 µM; in the assay with HCT-15 colon it was over 54.4 µM.
As for `CCN(CC)CCOc1ccc(/C(=C(\C)Cc2ccc(OC)cc2)c2ccc(O)cc2)cc1`, the GI50 in the assay on A549 NSCLC was 1.83 µM; in the assay on NCI-H460 lung, 1.86 µM; in the assay on SK-OV-3 ovarian it was 2.48 µM; in the assay on MDA-MB-435, 1.68 µM; with UO-31 renal it was 1.45 µM; with SN12C renal, 1.53 µM. Besides, the GI50 was 1.14 µM in the assay with T-47D breast, 1.58 µM in the assay on SNB-75 CNS, 1.68 µM in the assay on OVCAR-3 ovarian and 1.49 µM with HCT-15 colon. The TGI in the assay on A549 NSCLC came out at 3.56 µM; with NCI-H460 lung it was 3.68 µM; in the assay on SK-OV-3 ovarian, 7.38 µM; with MDA-MB-435 it was 3.15 µM; in the assay on UO-31 renal, 2.8 µM; with SN12C renal, 3.03 µM. Moreover, the TGI in the assay with T-47D breast turned out to be 3.52 µM; in the assay with SNB-75 CNS it was 3.38 µM; in the assay with OVCAR-3 ovarian it was 3.21 µM; in the assay on HCT-15 colon it was 3 µM.
As to `CC[C@@]1(O)C(=O)OCc2c1cc1n(c2=O)Cc2cc3cc(O)ccc3nc2-1`, the GI50 was 0.0813 µM in the assay with A549 NSCLC; 0.0172 µM and < 0.0104 µM with NCI-H460 lung; under 0.0124 µM in the assay on SK-OV-3 ovarian; 0.0311 µM and 0.0195 µM in the assay on UO-31 renal; 0.069 µM and 0.0368 µM in the assay with OVCAR-3 ovarian; 0.355 µM in the assay on HCT-15 colon. In addition, the TGI in the assay with A549 NSCLC was 3.93 µM and 2.32 µM; with NCI-H460 lung it was 0.112 µM and 1.07 µM; with SK-OV-3 ovarian, 0.7 µM and 1.85 µM; in the assay on MDA-MB-435 it was 1.09 µM; with UO-31 renal, 0.204 µM and 0.135 µM; in the assay with SN12C renal, 1.48 µM and 3.54 µM. The TGI in the assay on T-47D breast is over 100 µM; in the assay with SNB-75 CNS it was 0.206 µM and 0.107 µM; with OVCAR-3 ovarian, 0.301 µM and 0.228 µM; in the assay on HCT-15 colon, 20.8 µM and 42.5 µM.
Consider `COC(=O)COc1ccccc1/C=C1/N=C(c2ccccc2)N(c2c(C)n(C)n(-c3ccccc3)c2=O)C1=O`, for which the GI50 in the assay on A549 NSCLC, in the assay with NCI-H460 lung, in the assay with SK-OV-3 ovarian, in the assay with MDA-MB-435, in the assay with UO-31 renal and with SN12C renal was over 100 µM throughout. Besides, the GI50 with T-47D breast is 30.5 µM; with SNB-75 CNS, over 100 µM; with OVCAR-3 ovarian, 20.9 µM; in the assay with HCT-15 colon it was over 100 µM. Moreover, the TGI in the assay on A549 NSCLC, in the assay on NCI-H460 lung, in the assay on SK-OV-3 ovarian, in the assay on MDA-MB-435, with UO-31 renal and in the assay on SN12C renal was over 100 µM each time. For the same compound, the TGI in the assay with T-47D breast was over 100 µM; with SNB-75 CNS it was over 100 µM; in the assay with OVCAR-3 ovarian it was 50.9 µM; in the assay on HCT-15 colon, over 100 µM.
As to `CCNCCS(=O)(=O)NC[C@@]1(c2ccccc2)SC(NC(=O)C(C)(C)C)=NN1C(=O)C(C)(C)C`, the GI50 was under 0.01 µM in the assay with A549 NSCLC; under 0.01 µM with NCI-H460 lung; under 0.01 µM in the assay with SK-OV-3 ovarian; under 0.01 µM in the assay with MDA-MB-435; 18.8 µM in the assay on UO-31 renal; under 0.01 µM with SN12C renal. Besides, the GI50 was under 0.01 µM with T-47D breast, under 0.0137 µM in the assay on SNB-75 CNS, under 0.01 µM in the assay with OVCAR-3 ovarian and 0.399 µM with HCT-15 colon. Besides, the TGI in the assay on A549 NSCLC is over 100 µM; in the assay with NCI-H460 lung, over 41.9 µM; in the assay with SK-OV-3 ovarian it was over 100 µM; in the assay with MDA-MB-435 it was under 0.01 µM; with UO-31 renal, over 100 µM; with SN12C renal it was over 100 µM. Besides, the TGI with T-47D breast was over 100 µM; with SNB-75 CNS, over 73.8 µM; in the assay with OVCAR-3 ovarian, over 100 µM; in the assay with HCT-15 colon it was over 100 µM.
Regarding `C=C(CC)C(=O)c1ccc(OCC(=O)O)c(Cl)c1Cl`, the TGI in the assay on A549 NSCLC is over 100 µM; in the assay on NCI-H460 lung it was over 69.9 µM; with SK-OV-3 ovarian it was over 100 µM; with MDA-MB-435, 32.3 µM; in the assay with UO-31 renal, 34.3 µM; in the assay on SN12C renal, 47.5 µM. Also, the TGI turned out to be 27.6 µM in the assay with T-47D breast, 50 µM with SNB-75 CNS, 30.1 µM in the assay with OVCAR-3 ovarian and 58.8 µM in the assay on HCT-15 colon.
